Molecular target: T1, human CTPS1 (Homo sapiens, UniProt P17812)
T1 construct: FLAG (with GG linker); His8 (with GG linker); purchased Proteros biostructures GmbH
T1 sequence (P17812 1-591): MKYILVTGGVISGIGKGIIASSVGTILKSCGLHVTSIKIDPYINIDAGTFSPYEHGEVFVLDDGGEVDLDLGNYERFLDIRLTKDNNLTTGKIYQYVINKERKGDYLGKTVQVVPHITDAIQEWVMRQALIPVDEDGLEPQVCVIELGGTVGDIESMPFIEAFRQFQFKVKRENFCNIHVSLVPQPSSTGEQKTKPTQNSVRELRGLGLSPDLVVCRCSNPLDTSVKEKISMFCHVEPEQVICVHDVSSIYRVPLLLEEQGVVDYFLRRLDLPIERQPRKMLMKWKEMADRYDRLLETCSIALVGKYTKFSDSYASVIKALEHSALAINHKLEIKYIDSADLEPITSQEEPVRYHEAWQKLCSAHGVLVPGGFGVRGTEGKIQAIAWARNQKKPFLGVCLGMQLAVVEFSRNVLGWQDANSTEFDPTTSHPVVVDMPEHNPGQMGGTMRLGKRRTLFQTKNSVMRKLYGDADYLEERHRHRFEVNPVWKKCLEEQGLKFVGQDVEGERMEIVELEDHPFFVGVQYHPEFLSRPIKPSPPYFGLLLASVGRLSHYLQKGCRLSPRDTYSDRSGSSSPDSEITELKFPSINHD
Assay: Human CTPS1 enzyme inhibition, ADP-Glo Max assay
Type: biochemical
Conditions: ADP-Glo Max assay; Table 10; read-out: Human CTPS1 Enzyme Inhibition, IC50 grouped by potency range (CTPS1)
Description: The enzyme inhibitory activities of compounds invented against the target of interest were determined using the ADP-Glo™ Max assay (Promega, UK). Assays for human CTPS1 were performed in 1× assay buffer containing 50 mM Tris, 10 mM MgCl2, 0.01% Tween-20, pH to 8.0 accordingly. Finally, immediately before use, L-cysteine was added to the 1× assay buffer to a final concentration of 2 mM. All reagents are from Sigma-Aldrich unless specified otherwise.
3× human CTPS1 protein was prepared in 1× assay buffer to the final working protein concentration required for the reaction. A 2 uL volume per well of 3× human CTPS1 protein was mixed with 2 uL per well of 3× test compound (compound prepared in 1× assay buffer to an appropriate final 3× compound concentration respective to the concentration response curve designed for the compounds under test) for 10 minutes at 25° C. […] ADP-Glo™ Max reagent was added for 60 minutes (6 μL per well) and subsequently ADP-Glo™ Max development reagent was added for 60 minutes (12 uL per well) prior to signal detection in a microplate reader (EnVision® Multilabel Reader, Perkin Elmer). Following each reagent addition over the course of the assay, assay plates were pulse centrifuged for 30 seconds at 500 rpm.
In all cases, the enzyme converts ATP to ADP and the ADP-Glo™ Max reagent subsequently depletes any remaining endogenous ATP in the reaction system. The ADP-Glo™ Max detection reagent converts the ADP that has been enzymatically produced back into ATP and using ATP as a substrate together with luciferin for the enzyme luciferase, light is generated which produces a detectable luminescence. […] The percentage inhibition produced by each concentration of compound was calculated using the equation shown below: […]

Structure (SMILES)	IC50 [µM]
CC(C)(C(=O)Nc1ccc(-c2cncc(C(F)(F)F)n2)cc1)c1csc(NS(=O)(=O)C2CCC2)n1 [T308, 2-(2-(cyclobutanesulfonamido)thiazol-4-yl)-2-methyl-N-(4-(6-(trifluoromethyl)pyrazin-2-yl)phenyl)propanamide]	0.1 to 1
Cc1cc(-c2cncc(C#N)c2)ccc1NC(=O)C(C)(C)c1csc(NS(=O)(=O)C2CC2)n1 [T286, N-(4-(5-cyanopyridin-3-yl)-2-methylphenyl)-2-(2-(cyclopropanesulfonamido)thiazol-4-yl)-2-methylpropanamide]	< 0.1
O=C(Cc1csc(NS(=O)(=O)C2CC2)n1)Nc1ccc(-c2cccnc2)cn1 [T65, N-([3,3′-bipyridin]-6-yl)-2-(2-(cyclopropanesulfonamido)thiazol-4-yl)acetamide]	0.1 to 1
CC(C)(C(=O)Nc1ccc(-c2cnccc2C(F)(F)F)cc1)c1csc(NS(=O)(=O)C2CC2)n1 [T255, 2-(2-(cyclopropanesulfonamido)thiazol-4-yl)-2-methyl-N-(4-(4-(trifluoromethyl)pyridin-3-yl)phenyl)propanamide]	1 to 10
CC(C)CS(=O)(=O)Nc1nc(C(C)(C)C(=O)Nc2ccc(-c3cncc(C(F)(F)F)n3)cc2)cs1 [T313, 2-methyl-2-(2-((2-methylpropyl)sulfonamido)thiazol-4-yl)-N-(4-(6-(trifluoromethyl)pyrazin-2-yl)phenyl)propanamide]	0.1 to 1
COc1ncc(-c2ccc(NC(=O)Cc3csc(NS(=O)(=O)C4CC4)n3)cc2)cn1 [T242, 2-(2-(cyclopropanesulfonamido)thiazol-4-yl)-N-(4-(2-methoxypyrimidin-5-yl)phenyl)acetamide]	1 to 10
CC(C)(C(=O)Nc1ccc(-c2cnccn2)c(C#N)c1)c1csc(NS(=O)(=O)C2CC2)n1 [T34, N-(3-cyano-4-(pyrazin-2-yl)phenyl)-2-(2-(cyclopropanesulfonamido)thiazol-4-yl)-2-methylpropanamide]	0.1 to 1
CC(C)(C(=O)Nc1ccc(-c2cncc(OCC(F)(F)F)c2)cc1F)c1csc(NS(=O)(=O)C2CC2)n1 [T132, 2-(2-(cyclopropanesulfonamido)thiazol-4-yl)-N-(2-fluoro-4-(5-(2,2,2-trifluoroethoxy)pyridin-3-yl)phenyl)-2-methylpropanamide]	0.1 to 1
CC(C)(C(=O)Nc1ccc(-c2cccnc2F)cc1)c1csc(NS(=O)(=O)C2CC2)n1 [T240, 2-(2-(cyclopropanesulfonamido)thiazol-4-yl)-N-(4-(2-fluoropyridin-3-yl)phenyl)-2-methylpropanamide]	0.1 to 1
O=C(Nc1ccc(-c2ccccc2)cc1)C(F)(F)c1csc(NS(=O)(=O)C2CC2)n1 [T60, N-([1,1′-biphenyl]-4-yl)-2-(2-(cyclopropanesulfonamido)thiazol-4-yl)-2,2-difluoroacetamide]	0.1 to 1
Cc1nccnc1-c1ccc(NC(=O)C(C)(C)c2csc(NS(=O)(=O)C3CC3)n2)cc1 [T280, 2-(2-(cyclopropanesulfonamido)thiazol-4-yl)-2-methyl-N-(4-(3-methylpyrazin-2-yl)phenyl)propanamide]	1 to 10
COc1cc(-c2cncc(C)c2)ccc1NC(=O)C(C)(C)c1csc(NS(=O)(=O)C2CC2)n1 [T258, 2-(2-(cyclopropanesulfonamido)thiazol-4-yl)-N-(2-methoxy-4-(5-methylpyridin-3-yl)phenyl)-2-methylpropanamide]	0.1 to 1
O=C(Nc1ccc(-c2cccnc2)cc1)C(=O)c1csc(NS(=O)(=O)C2CC2)n1 [T104, 2-(2-(cyclopropanesulfonamido)thiazol-4-yl)-2-oxo-N-(4-(pyridin-3-yl)phenyl)acetamide]	0.1 to 1
CC(C)(C(=O)Nc1ccc(-c2cncc(OCC(F)(F)F)n2)cn1)c1csc(NS(=O)(=O)C2CC2)n1 [T109, 2-(2-(cyclopropanesulfonamido)thiazol-4-yl)-2-methyl-N-(5-(6-(2,2,2-trifluoroethoxy)pyrazin-2-yl)pyridin-2-yl)propanamide]	< 0.1
CN(C)c1cncc(-c2ccc(NC(=O)C(C)(C)c3csc(NS(=O)(=O)C4CC4)n3)cc2)c1 [T257, 2-(2-(cyclopropanesulfonamido)thiazol-4-yl)-N-(4-(5-(dimethylamino)pyridin-3-yl)phenyl)-2-methylpropanamide]	0.1 to 1
O=C(Cc1csc(NS(=O)(=O)C2CC2)n1)Nc1ccc(-c2cccnc2)c(F)c1F [T188, 2-(2-(cyclopropanesulfonamido)thiazol-4-yl)-N-(2,3-difluoro-4-(pyridin-3-yl)phenyl)acetamide]	0.1 to 1
CCOc1cncc(-c2ccc(NC(=O)C(N)c3csc(NS(=O)(=O)C4CC4)n3)cc2)n1 (stereo not shown) [T325, 2-Amino-2-(2-(cyclopropanesulfonamido)thiazol-4-yl)-N-(4-(6-ethoxypyrazin-2-yl)phenyl)acetamide]	< 0.1
CCOc1cncc(-c2ccc(NC(=O)C(C)(C)c3csc(NS(=O)(=O)C4CC4)n3)cc2)n1 [T52, 2-(2-(cyclopropanesulfonamido)thiazol-4-yl)-N-(4-(6-ethoxypyrazin-2-yl)phenyl)-2-methylpropanamide]	< 0.1

Continued, values first:

IC50 [µM]	Structure (SMILES)
< 0.1	CCOc1cncc(-c2cnc(NC(=O)C(C)(C)c3csc(NS(=O)(=O)C4CC4)n3)c(F)c2)n1 [T111, 2-(2-(cyclopropanesulfonamido)thiazol-4-yl)-N-(5-(6-ethoxypyrazin-2-yl)-3-fluoropyridin-2-yl)-2-methylpropanamide]
< 0.1	CC(C)(C(=O)Nc1ccc(-c2cncc(OC(F)F)c2)cn1)c1csc(NS(=O)(=O)C2CC2)n1 [T115, 2-(2-(cyclopropanesulfonamido)thiazol-4-yl)-N-(5′-(difluoromethoxy)-[3,3′-bipyridin]-6-yl)-2-methylpropanamide]
0.1 to 1	Cc1cc(NC(=O)C(C)(C)c2csc(NS(=O)(=O)C3CC3)n2)ccc1-c1cncc(Cl)c1 [T288, N-(4-(5-chloropyridin-3-yl)-3-methylphenyl)-2-(2-(cyclopropanesulfonamido)thiazol-4-yl)-2-methylpropanamide]
0.1 to 1	CC(C)(C(=O)Nc1ccc(-c2ccccc2)nc1)c1csc(NS(=O)(=O)C2CC2)n1 [T239, 2-(2-(cyclopropanesulfonamido)thiazol-4-yl)-2-methyl-N-(6-phenylpyridin-3-yl)propanamide]
< 0.1	COc1cncc(-c2ccc(NC(=O)C(C)(C)c3csc(NS(=O)(=O)C4CC4)n3)c(F)c2)n1 [T275, 2-(2-(cyclopropanesulfonamido)thiazol-4-yl)-N-(2-fluoro-4-(6-methoxypyrazin-2-yl)phenyl)-2-methylpropanamide]
0.1 to 1	CC(C)(C(=O)Nc1ccc(-c2cccnc2)cc1)c1csc(NS(C)(=O)=O)n1 [T163, 2-methyl-2-(2-(methylsulfonamido)thiazol-4-yl)-N-(4-(pyridin-3-yl)phenyl)propanamide]
0.1 to 1	CC(C)(C(=O)Nc1ccc(-c2cncc(OCC(F)(F)F)c2)cc1)c1csc(NS(=O)(=O)C2CC2)n1 [T135, 2-(2-(cyclopropanesulfonamido)thiazol-4-yl)-2-methyl-N-(4-(5-(2,2,2-trifluoroethoxy)pyridin-3-yl)phenyl)propanamide]
< 0.1	Cc1cncc(-c2ccc(NC(=O)C(C)(C)c3csc(NS(=O)(=O)C4CC4)n3)cc2)c1 [T30, 2-(2-(cyclopropanesulfonamido)thiazol-4-yl)-2-methyl-N-(4-(5-methylpyridin-3-yl)phenyl)propanamide]
0.1 to 1	Cc1c(Cl)cncc1-c1ccc(NC(=O)C(C)(C)c2csc(NS(=O)(=O)C3CC3)n2)cc1 [T428, N-(4-(5-chloro-4-methylpyridin-3-yl)phenyl)-2-(2-(cyclopropanesulfonamido)thiazol-4-yl)-2-methylpropanamide]
1 to 10	CC(C)(O)c1cccc(-c2ccc(NC(=O)C(C)(C)c3csc(NS(=O)(=O)C4CC4)n3)nc2)c1 [T237, 2-(2-(cyclopropanesulfonamido)thiazol-4-yl)-N-(5-(3-(2-hydroxypropan-2-yl)phenyl)pyridin-2-yl)-2-methylpropanamide]

Source: US20230086703A1, “N-(4-(5-chloropyridin-3-yl)phenyl)-2-(2-(cyclopropanesulfonamido)pyrimidin-4-yl) butanamide derivatives and related compounds as human CTPS1 inhibitors for the treatment of proliferative diseases” (Step Pharma S.A.S., priority 2019, published 2023)
